Laboratory results as given in patent US11413278B2, “Compounds and methods for promoting stress resistance” (priority 2015, dated 2022).
Entries after “also recorded” stand apart in the source; their conditions may differ. Like-named read-outs stand apart in the source and are kept apart here.

Key:
Type in all cases: cell-based, human
FOXO3 = experiment: qPCR analysis of FOXO3-regulated genes; settings: for fold induction at 10 µM: Homo sapiens
Procedure, shortened: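 WI-38 cells treated with compound at 10 μM for 24 h, followed by Cells-to-Ct RT-qPCR of FOXO3 target genes normalised to B2M, PPIA and GAPDH. FOXO3 or NRF2 dependence tested by prior 10 nM siRNA knockdown (36 h transfection, compound added ~24 h after replating).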

mTOR = mTOR inhibition (RPS6 phosphorylation status), In-Cell Western; settings: for Exp. 1, normalized reduction in p-RPS6/RPS6 ratio / Exp. 3, normalized reduction in p-RPS6/RPS6 ratio: n=4
Procedure, shortened: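 WI-38 cells exposed to compounds at 5, 10 and 20 μM for 24 hrs. Fixed cells co-stained overnight at 4° C with anti-RPS and anti-pRPS6 (Ser-235/236) antibodies, then DyLight 680/800 secondaries. Phospho-RPS6 relative to total RPS6 read by near-infrared In-Cell Western imaging.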

NRF2 = experiment: qPCR analysis of NRF2-regulated genes; settings: for fold induction at 10 µM: Homo sapiens
Procedure, shortened: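 WI-38 cells treated with compound at 10 μM for 24 hrs, then processed by Cells-to-Ct for RNA isolation, RT and qPCR of NRF2-regulated genes (HMOX1, NQO1, GCLC, GSTM1). Expression normalized to B2M, PPIA and GAPDH; siRNA knockdown of FOXO3 or NRF2 (10 nM) preceded treatment in some runs.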

Q: Which results are given for `O=C(NCc1cccnc1)/C(=C\c1ccc(Br)cc1)S(=O)(=O)c1ccccc1` [Gr-7B]?
A: E = Potential FOXO3 Activation (FOXO3; 2-point score): 0; fold induction at 10 µM (FOXO3; 24 h, Assay 10(m), at 10 uM, qPCR, read-out: Induction of FOXO3-regulated genes: GADD45A normalized fold-change): 2.07; fold induction at 10 µM (FOXO3; 24 h, Assay 10(m), at 10 uM, qPCR, read-out: Induction of FOXO3-regulated genes: TXNIP normalized fold-change): 0.26; fold induction at 10 µM (FOXO3; 10 μM, 24 hrs, WI-38 cells, qPCR, normalized to B2M, n = 4, read-out: GADD45A expression, normalized fold change (FOXO3-regulated gene)): 2.07; fold induction at 10 µM (FOXO3; 10 μM, 24 hrs, WI-38 cells, qPCR, normalized to B2M, n = 4, read-out: TXNIP expression, normalized fold change (FOXO3-regulated gene)): 0.26; fold induction at 10 µM (FOXO3; WI-38 cells, 10 μM, 24 hrs, n=4, qPCR normalized by B2M, read-out: DDB1 Normalized fold change): 1.31; fold induction at 10 µM (FOXO3; WI-38 cells, 10 μM, 24 hrs, n=4, qPCR normalized by B2M, read-out: GADD45A Normalized fold change): 2.07; fold induction at 10 µM (FOXO3; WI-38 cells, 10 μM, 24 hrs, n=4, qPCR normalized by B2M, read-out: SESN1 Normalized fold change): 0.952; fold induction at 10 µM (FOXO3; fold change, qPCR, WI-38 cells, 10 μM, 24 hrs, read-out: Summary of effects on FOXO3-regulated genes: GADD45A): 2.07; fold induction at 10 µM (FOXO3; fold change, qPCR, WI-38 cells, 10 μM, 24 hrs, read-out: Summary of effects on FOXO3-regulated genes: TXNIP): 0.26; fold induction at 10 µM (FOXO3; qPCR, WI-38 cells, 10 μM, n=4, 24 hrs, normalized by B2M, read-out: CAT Normalized fold change): 1.13; fold induction at 10 µM (FOXO3; qPCR, WI-38 cells, 10 μM, n=4, 24 hrs, normalized by B2M, read-out: SOD2 Normalized fold change): 1.33; fold induction at 10 µM (FOXO3; qPCR, WI-38 cells, 10 μM, n=4, 24 hrs, normalized by B2M, read-out: TXNIP Normalized fold change): 0.262; K = Sestrin induction (FOXO3; score): 0; E = Potential FOXO3 Activation (FOXO3; summary score): 0; G = mTOR down-regulation (mTOR; 2-point score): 2; mTOR down-regulation by p-RPS6 assays (mTOR; Assay 14(q), at 5 uM, 10 uM & 20 uM): YES; Exp. 1, normalized reduction in p-RPS6/RPS6 ratio (mTOR; Exp. 1, In-Cell Western): ~67% (−), at 20 μM; Exp. 1, normalized reduction in p-RPS6/RPS6 ratio (mTOR; Exp. 1, at 10 μM, In-Cell Western): ~65% (−), at 10 μM;; Exp. 3, normalized reduction in p-RPS6/RPS6 ratio (mTOR; Exp. 3, In-Cell Western): ~53% (−), at 20 μM; Exp. 3, normalized reduction in p-RPS6/RPS6 ratio (mTOR; Exp. 3, at 5 μM, In-Cell Western): ~48% (−), at 5 μM;; Exp. 3, normalized reduction in p-RPS6/RPS6 ratio (mTOR; Exp. 3, at 10 μM, In-Cell Western): ~45% (−), at 10 μM;; mTOR inhibition (p-RPS6/RPS6), qualitative (mTOR; In-Cell Western): mTOR-inhibiting activities; also recorded: consistently reduced the ratios; G = mTOR down-regulation (mTOR; summary score): 2; F = Potential NRF2 Activation (NRF2; 2-point score): 0; fold induction at 10 µM (NRF2; 24 h, Assay 12(o), at 10 uM, qPCR, read-out: Induction of NRF2-regulated genes: HMOX1 normalized fold-change): 17.9; fold induction at 10 µM (NRF2; rounded fold change, WI-38 cells, 10 μM, 24 hrs (RP11 for Gr-1D, RP29 for Gr-4D), read-out: Summary of effects on NRF2-regulated genes: HMOX1): 54.1; fold induction at 10 µM (NRF2; 10 μM, 24 hrs, WI-38 cells, qPCR, normalized to B2M, n = 4, read-out: HMOX1 expression, normalized fold change (NRF2-regulated gene)): 54.1; fold induction at 10 µM (NRF2; WI-38 cells, 10 μM, 24 hrs, n=4, qPCR normalized by B2M, read-out: GCLC Normalized fold change): 1.8; fold induction at 10 µM (NRF2; WI-38 cells, 10 μM, 24 hrs, n=4, qPCR normalized by B2M, read-out: GSTM1 Normalized fold change): 0.981; fold induction at 10 µM (NRF2; WI-38 cells, 10 μM, 24 hrs, n=4, qPCR normalized by B2M, read-out: HMOX1 Normalized fold change): 54.2; fold induction at 10 µM (NRF2; WI-38 cells, 10 μM, 24 hrs, n=4, qPCR normalized by B2M, read-out: NQO1 Normalized fold change): 1.41; F = Potential NRF2 Activation (NRF2; summary score): 0
